The subject of one test is HER2-WT MM3MG. The conditions noted are these: MM3MG-HER2-WT s.c. in SCID-Beige mice; T-DM1 weekly via tail vein, 200 μg/mouse, from day 10; FIG. 6. How it is done: (§1) MM3MG cells stably expressing the indicated genes were implanted subcutaneously into SCID-Beige mice (100,000 per mouse in PBS) at days 0. Mice were treated weekly with T-DM1 via tail vein injection (200 μg/mouse) beginning at day 10. Tumor growth was measured by calipers at the indicated days (N=5, bars represent SE).
(§2) Experiments using BALB/c, and SCID-Beige mice (obtained from Jackson Labs) were done in accordance with Duke Institutional Animal Care and Use Committee-approved protocols. For tumor vaccine experiments, Human HER2-transgenic mice (kindly provided by Dr. Wei-Zen Wei, Wayne State University, Detroit, MI^4) were crossed with BALB/c mice (Jackson Labs) to permit implantation of MM3MG-HER2d16 tumors and genotyped by PCR as previously described^5. In immnodeficient animals, stable cells were injected s.c. into the flank of SCID-beige mice (at indicated cells/animal) and measured as indicated. Tumor measurements were made using calipers and volumes calculated using the formula [v=width×width×(length/2)] whereas statistical differences were calculated using a mixed effects regression model using autoregressive covariance. In treatment experiments, T-DM1 was weekly delivered via tail vein (200 μg/mouse) while Lapatinib was given by oral gavage (5 times a week, 75 mg/kg).

The subject of test [1] is MM3MG cells stably expressing HER2d16. Conditions: MM3MG-HER2d16 s.c. in SCID-Beige mice; for effect of lapatinib on growth of HER2d16 tumors: lapatinib oral gavage 75 mg/kg, 5 times a week, from day 8, FIG. 7, 75 mg/kg. As to the method: as §1
MM3MG cells stably expressing the indicated genes were implanted subcutaneously into SCID-Beige mice (100,000 per mouse in PBS) at days 0. Mice were treated […] with lapatinib by oral gavage (75 mg/kg/5 days week) at day 8. Tumor growth was measured by calipers at the indicated days (N=5, bars represent SE).
as §2

Entries after “also recorded” stand apart in the source; their conditions may differ. Where two headings read alike, the source gives them in different places.

As for Trastuzumab-DM1 [T-DM1], the “effect of T-DM1 on growth of HER2-WT MM3MG tumors” value in the test with HER2-WT MM3MG is recorded as “significantly suppressed”. Moreover, the “effect of T-DM1 on growth of HER2d16 tumors” value in test [1] (T-DM1 weekly via tail vein, 200 μg/mouse, from day 10, FIG. 6) was “more resistant; also recorded: only weakly impacted”.

For the molecule `CS(=O)(=O)CCNCc1ccc(-c2ccc3ncnc(Nc4ccc(OCc5cccc(F)c5)c(Cl)c4)c3c2)o1` [Lapatinib], the “effect of lapatinib on growth of HER2d16 tumors” value in test [1] is “only had a minor effect”; in test [1] (listed as lapatinib), “resistant”.

Source of the values: patent US12083172B2, “Vaccines against an oncogenic isoform of HER2 (ErbB2) and methods of using the same” (Duke University, priority 2014, dated 2024).
